Drawing on PubChem BioAssay AID248 (DTP/NCI, 2004), this text covers T/C for 17 compounds.

SMILES strings stand for the structures. Several values for one entry are separate records, joined by “and”; a condition that tells them apart may be missing. Equal entries are not always repeated. Toxic doses and inconclusive results are not listed.

For this test, the system named is L1210 leukemia ip in BDF1 mice, survival T/C. Nature of the test: NCI In Vivo Anticancer Drug Screen. Data for tumor model L1210 Leukemia (intraperitoneal) in B6D2F1 (BDF1) mice. Conditions: endpoint: mean survival time, higher = longer survival. In outline: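 Mice bearing the transplanted tumor received compound or vehicle. Survival of the treated group was divided by that of the vehicle-treated control group to give the ratio.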

[1] abbreviates: dose: 100.0 mg/kg/injection, schedule: Q01DX009 (ip), vehicle: saline with Tween-80.
The mark [2] stands for this setting: dose: 100.0 mg/kg/injection, schedule: Q04DX003 (ip), vehicle: saline.
The mark [3] stands for this setting: dose: 200.0 mg/kg/injection, schedule: Q01DX009 (ip), vehicle: saline with Tween-80.
The mark [4] stands for this setting: dose: 200.0 mg/kg/injection, schedule: Q04DX003 (ip), vehicle: saline.
Setting [5] is: dose: 400.0 mg/kg/injection, schedule: Q01DX009 (ip), vehicle: saline with Tween-80.
Setting [6] is: dose: 400.0 mg/kg/injection, schedule: Q04DX003 (ip), vehicle: saline.
Setting [7] is: dose: 100.0 mg/kg/injection, schedule: Q01DX001 (ip), vehicle: saline.
The mark [8] stands for this setting: dose: 200.0 mg/kg/injection, schedule: Q01DX001 (ip), vehicle: saline.
The mark [9] stands for this setting: dose: 400.0 mg/kg/injection, schedule: Q01DX001 (ip), vehicle: saline.

`COc1cc(OC)c(C(=O)c2ccccc2[N+](=O)[O-])c(OC)c1`: the T/C was 91 % of control under setting [1]; 99 % of control under setting [2]; 92 % of control under setting [3]; 99 % of control under setting [4]; 96 % of control under setting [5]; 100 % of control under setting [6].

As to `S=c1nc[nH]c2c1ncn2CN1CCCCC1`, the T/C was 151 % of control (dose: 25.0 mg/kg/injection, schedule: Q01DX009 (ip), vehicle: other); 109 % of control (dose: 25.0 mg/kg/injection, schedule: Q01DX Z (ip), vehicle: carboxymethylcellulose (CMC)); 192 % of control (dose: 50.0 mg/kg/injection, schedule: Q01DX009 (ip), vehicle: other); 102 % of control (dose: 50.0 mg/kg/injection, schedule: Q01DX Z (ip), vehicle: carboxymethylcellulose (CMC)); 116 % of control (dose: 100.0 mg/kg/injection, schedule: Q01DX009 (ip), vehicle: other); 120 % of control (dose: 100.0 mg/kg/injection, schedule: Q01DX Z (ip), vehicle: carboxymethylcellulose (CMC)). The T/C (dose: 200.0 mg/kg/injection, schedule: Q01DX009 (ip), vehicle: other) was 102 % of control.

As for `CCOC(=O)CCN(CC)CC`, the T/C was 97 % of control under setting [2], 94 % of control under setting [4] and 108 % of control under setting [6].

For the compound `CC(=O)[O][Pb]([CH3])([CH3])[CH3]`, the T/C runs as follows: (dose: 5.0 mg/kg/injection, schedule: Q01DX001 (ip), vehicle: carboxymethylcellulose (CMC)) 110 % of control; (dose: 10.0 mg/kg/injection, schedule: Q01DX001 (ip), vehicle: carboxymethylcellulose (CMC)) 103 % of control.

For `Nc1nc2ncc(CNc3nc(C(=O)NC(CCC(=O)O)C(=O)O)cs3)nc2c(=O)[nH]1` (configuration not stated), the T/C by setting is: (dose: 25.0 mg/kg/injection, schedule: Q01DX009 (ip), vehicle: alkali diluted with saline) 97 % of control; (dose: 50.0 mg/kg/injection, schedule: Q01DX009 (ip), vehicle: alkali diluted with saline) 93 % of control; (dose: 75.0 mg/kg/injection, schedule: Q01DX001 (ip), vehicle: other) 101 % of control; (dose: 75.0 mg/kg/injection, schedule: Q01DX009 (ip), vehicle: alkali diluted with saline) 103 % of control; (dose: 100.0 mg/kg/injection, schedule: Q01DX009 (ip), vehicle: alkali diluted with saline) 92 % of control; (dose: 150.0 mg/kg/injection, schedule: Q01DX001 (ip), vehicle: other) 103 % of control.

For the compound `C/C(=C/c1ccccc1)S(=O)(=O)c1ccccc1`, the T/C under setting [7] was 105 % of control; the T/C (dose: 100.0 mg/kg/injection, schedule: Q01DX009 (ip), vehicle: saline) is 91 % of control; the T/C under setting [8] is 100 % of control; the T/C (dose: 200.0 mg/kg/injection, schedule: Q01DX009 (ip), vehicle: saline) was 94 % of control; the T/C under setting [9] is 105 % of control; the T/C (dose: 400.0 mg/kg/injection, schedule: Q01DX009 (ip), vehicle: saline) was 93 % of control.

With `c1ccc(CCc2nccc3ccccc23)cc1`, the T/C was 96 % of control (dose: 75.0 mg/kg/injection, schedule: Q01DX001 (ip), vehicle: saline) and 97 % of control (dose: 150.0 mg/kg/injection, schedule: Q01DX001 (ip), vehicle: saline).

On to `COc1cc(C(=O)COC(C)=O)cc2c1OC(c1ccccc1)(c1ccccc1)O2`, for which the T/C under setting [8] is 86 % of control.

For `CSc1ccc(NC(=O)c2ccc(Cl)cc2Cl)cc1`, the T/C (dose: 100.0 mg/kg/injection, schedule: Q01DX001 (ip), vehicle: saline with Tween-80) is 89 % of control; the T/C (dose: 100.0 mg/kg/injection, schedule: Q01DX009 (ip), vehicle: saline + alcohol) was 95 % of control and 108 % of control; the T/C (dose: 100.0 mg/kg/injection, schedule: Q04DX002 (ip), vehicle: saline with Tween-80) is 96 % of control and 108 % of control; the T/C (dose: 200.0 mg/kg/injection, schedule: Q01DX001 (ip), vehicle: saline with Tween-80) is 89 % of control; the T/C (dose: 200.0 mg/kg/injection, schedule: Q01DX009 (ip), vehicle: saline + alcohol) is 97 % of control and 106 % of control; the T/C (dose: 200.0 mg/kg/injection, schedule: Q04DX002 (ip), vehicle: saline with Tween-80) was 93 % of control and 97 % of control. In addition, the T/C reads like this: (dose: 400.0 mg/kg/injection, schedule: Q01DX001 (ip), vehicle: saline with Tween-80) 90 % of control; (dose: 400.0 mg/kg/injection, schedule: Q04DX002 (ip), vehicle: saline with Tween-80) 93 % of control and 97 % of control.

As to `Cc1ccc(Cl)cc1NC(=O)Nc1ccc(C)c(NC(=O)Nc2cc(Cl)ccc2C)c1`, the T/C is, setting by setting: under setting [1], 87 % of control; (dose: 100.0 mg/kg/injection, schedule: Q04DX003 (ip), vehicle: saline with Tween-80) 88 % of control; under setting [3], 92 % of control; (dose: 200.0 mg/kg/injection, schedule: Q04DX003 (ip), vehicle: saline with Tween-80) 86 % of control; under setting [5], 98 % of control; (dose: 400.0 mg/kg/injection, schedule: Q04DX003 (ip), vehicle: saline with Tween-80) 90 % of control.

As for `CC(Br)c1ccc2c(c1)Cc1ccccc1-2` (configuration not stated), the T/C (dose: 100.0 mg/kg/injection, schedule: Q01DX001 (ip), vehicle: carboxymethylcellulose (CMC)) was 97 % of control; the T/C (dose: 200.0 mg/kg/injection, schedule: Q01DX001 (ip), vehicle: carboxymethylcellulose (CMC)) is 89 % of control; the T/C (dose: 400.0 mg/kg/injection, schedule: Q01DX001 (ip), vehicle: carboxymethylcellulose (CMC)) was 97 % of control.

On to `CCOC(=O)N(C(=S)Nc1ccccc1)c1nc(C)cs1`, for which the T/C runs as follows: (dose: 100.0 mg/kg/injection, schedule: Q01DX001 (ip), vehicle: gum acacia) 100 % of control; (dose: 200.0 mg/kg/injection, schedule: Q01DX001 (ip), vehicle: gum acacia) 111 % of control; (dose: 400.0 mg/kg/injection, schedule: Q01DX001 (ip), vehicle: gum acacia) 97 % of control.

Consider `Clc1cc(Cl)c2c(c1)Cc1cc(Cl)cc(N=Cc3ccc4c(c3)OCO4)c1-2`, for which the T/C (dose: 100.0 mg/kg/injection, schedule: Q01DX009 (ip), vehicle: Klucel (hydroxypropylcellulose) (HPC)) was 97 % of control; the T/C (dose: 100.0 mg/kg/injection, schedule: Q04DX003 (ip), vehicle: Klucel (hydroxypropylcellulose) (HPC)) is 97 % of control; the T/C (dose: 200.0 mg/kg/injection, schedule: Q01DX009 (ip), vehicle: Klucel (hydroxypropylcellulose) (HPC)) is 99 % of control; the T/C (dose: 200.0 mg/kg/injection, schedule: Q04DX003 (ip), vehicle: Klucel (hydroxypropylcellulose) (HPC)) was 97 % of control; the T/C (dose: 400.0 mg/kg/injection, schedule: Q04DX003 (ip), vehicle: Klucel (hydroxypropylcellulose) (HPC)) was 104 % of control.

Turning to `C/C(=N/N(C)C)c1cccs1`, the T/C was 89 % of control (dose: 4.0 mg/kg/injection, schedule: Q04DX003 (sc), vehicle: olive oil, sesame oil, peanut oil); 103 % of control (dose: 6.0 mg/kg/injection, schedule: Q04DX003 (sc), vehicle: olive oil, sesame oil, peanut oil); 99 % of control (dose: 9.0 mg/kg/injection, schedule: Q04DX003 (sc), vehicle: olive oil, sesame oil, peanut oil); 102 % of control (dose: 12.5 mg/kg/injection, schedule: Q04DX003 (sc), vehicle: olive oil, sesame oil, peanut oil); 97 % of control (dose: 14.0 mg/kg/injection, schedule: Q04DX003 (sc), vehicle: olive oil, sesame oil, peanut oil); 120 % of control (dose: 22.0 mg/kg/injection, schedule: Q04DX003 (sc), vehicle: olive oil, sesame oil, peanut oil). For the same compound, the T/C (dose: 33.0 mg/kg/injection, schedule: Q04DX003 (sc), vehicle: olive oil, sesame oil, peanut oil) is 124 % of control and the T/C (dose: 50.0 mg/kg/injection, schedule: Q04DX003 (sc), vehicle: olive oil, sesame oil, peanut oil) was 98 % of control.

Take `COc1ccc(OCCOC(C)=O)cc1`: the T/C runs as follows: (dose: 100.0 mg/kg/injection, schedule: Q04DX002 (ip), vehicle: Klucel (hydroxypropylcellulose) (HPC)) 107 % of control; (dose: 200.0 mg/kg/injection, schedule: Q04DX002 (ip), vehicle: Klucel (hydroxypropylcellulose) (HPC)) 100 % of control; (dose: 400.0 mg/kg/injection, schedule: Q04DX002 (ip), vehicle: Klucel (hydroxypropylcellulose) (HPC)) 103 % of control.

For `Nc1ncnn1Cc1ccccc1`, the T/C runs as follows: under setting [7], 96 % of control; under setting [2], 101 % of control; under setting [8], 97 % of control; under setting [4], 106 % of control; under setting [9], 100 % of control; under setting [6], 101 % of control.

In the case of `N#CCCCOc1cccc([N+](=O)[O-])c1`, the T/C runs as follows: under setting [1], 93 % of control; under setting [3], 102 % of control.
